According to US11331299B2, “Medicinal use of serrulatane diterpenes” (The University of Sydney, priority 2016, dated 2022):

Key:
JARID1C (h) = JARID1C (h) (Homo sapiens, UniProt P41229); assay: Epigenetic enzyme assay, Demethylases (KDMs); type: biochemical; conditions: read-out: % Inhibition of Control Values
[1] = system: 43 cancer cell lines and one normal cell line; assay: In vitro cell viability assay (intracellular ATP, 72 hour); type: cell-based; conditions: 10 μM
[2] = A549/ATCC (Non-Small Cell Lung Cancer)
[3] = LL/2 (Non-Small Cell Lung Cancer)
[4] = NCI-H460 (Non-Small Cell Lung Cancer)
[5] = PC-6 (Non-Small Cell Lung Cancer)

JARID1C (h), sequence (P41229 whole entry): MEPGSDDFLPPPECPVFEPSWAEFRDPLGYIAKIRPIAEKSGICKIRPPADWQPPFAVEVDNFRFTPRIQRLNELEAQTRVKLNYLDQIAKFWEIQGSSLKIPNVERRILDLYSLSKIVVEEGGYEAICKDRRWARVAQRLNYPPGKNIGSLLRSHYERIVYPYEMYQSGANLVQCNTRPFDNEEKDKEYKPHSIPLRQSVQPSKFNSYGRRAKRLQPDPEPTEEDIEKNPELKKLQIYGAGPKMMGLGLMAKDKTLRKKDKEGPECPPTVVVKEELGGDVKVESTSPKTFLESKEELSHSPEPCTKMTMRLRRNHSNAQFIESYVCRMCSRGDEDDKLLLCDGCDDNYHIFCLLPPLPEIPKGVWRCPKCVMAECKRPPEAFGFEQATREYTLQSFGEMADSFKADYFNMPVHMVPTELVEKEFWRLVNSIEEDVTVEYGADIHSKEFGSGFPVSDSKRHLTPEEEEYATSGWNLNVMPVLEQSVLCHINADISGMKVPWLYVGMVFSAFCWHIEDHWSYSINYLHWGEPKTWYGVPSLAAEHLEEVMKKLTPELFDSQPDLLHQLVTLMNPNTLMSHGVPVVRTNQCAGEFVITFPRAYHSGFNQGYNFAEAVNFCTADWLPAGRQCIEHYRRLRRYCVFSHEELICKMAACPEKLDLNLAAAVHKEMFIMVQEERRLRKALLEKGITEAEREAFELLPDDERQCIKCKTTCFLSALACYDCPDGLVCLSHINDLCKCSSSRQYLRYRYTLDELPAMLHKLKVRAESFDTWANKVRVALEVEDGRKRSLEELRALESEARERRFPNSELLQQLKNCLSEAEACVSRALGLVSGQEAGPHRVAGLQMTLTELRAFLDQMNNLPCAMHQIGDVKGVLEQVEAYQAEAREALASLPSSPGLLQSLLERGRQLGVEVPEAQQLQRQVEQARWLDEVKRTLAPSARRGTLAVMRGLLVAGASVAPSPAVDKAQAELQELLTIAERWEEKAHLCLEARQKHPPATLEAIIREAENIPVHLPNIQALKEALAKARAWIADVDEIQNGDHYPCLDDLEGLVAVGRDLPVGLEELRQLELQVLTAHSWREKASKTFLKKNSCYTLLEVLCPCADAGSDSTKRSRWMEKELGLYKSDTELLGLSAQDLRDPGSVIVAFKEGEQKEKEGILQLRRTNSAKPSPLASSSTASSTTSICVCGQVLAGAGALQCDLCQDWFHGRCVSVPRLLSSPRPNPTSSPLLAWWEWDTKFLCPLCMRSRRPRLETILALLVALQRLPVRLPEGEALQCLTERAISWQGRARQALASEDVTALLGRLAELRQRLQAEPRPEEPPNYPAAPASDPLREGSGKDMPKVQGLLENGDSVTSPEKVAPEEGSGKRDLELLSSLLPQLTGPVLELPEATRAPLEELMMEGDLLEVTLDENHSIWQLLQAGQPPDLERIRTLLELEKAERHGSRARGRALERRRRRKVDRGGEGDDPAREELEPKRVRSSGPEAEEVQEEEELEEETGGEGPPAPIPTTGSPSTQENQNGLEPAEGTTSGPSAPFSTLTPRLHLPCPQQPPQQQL

Compound: CC(C)=CCC[C@H](CO)[C@@H]1CC[C@@H](C)c2c1cc(C)c(O)c2O [Compound 1, 7,8,18-trihydroxyserrulat-14-ene]
- inhibition at 10 µM (JARID1C (h)): 49%
- reduction in cell viability ([1]; 12 cancer cell lines with moderate reduction): −40 to −80%
- reduction in cell viability ([1]; cancer cell lines with potent reduction): −80 to −100%
- % Cell growth ([1]; 4T1 (Breast Cancer)): 52%
- % Cell growth ([1]; A375 (Skin)): −5%
- % Cell growth [1, 2]: −92%
- % Cell growth ([1]; A-431 (Skin)): −89%
- % Cell growth ([1]; A-498 (Kidney Cancer)): −43%
- % Cell growth ([1]; ACHN (Kidney Cancer)): −41%
- % Cell growth ([1]; B16-F0 (Melanoma)): 7%
- % Cell growth ([1]; BT474 (Breast Cancer)): −67%
- % Cell growth ([1]; CT26.WT (Colon Cancer)): 2%
- % Cell growth ([1]; DLD-1 (Colon Cancer)): −65%
- % Cell growth ([1]; H33HJ-JA1 (Lymphoma)): −90%
- % Cell growth ([1]; HC-4 (Liver Cancer)): −91%
- % Cell growth ([1]; HCT-15 (Colon Cancer)): −62%
- % Cell growth ([1]; HCT-116 (Colon Cancer)): −74%
- % Cell growth ([1]; HT-29 (Colon Cancer)): −66%
- % Cell growth ([1]; Hep3B (Liver Cancer)): −84%
- % Cell growth ([1]; HepG2 (Liver Cancer)): −23%
- % Cell growth ([1]; K-562 (Leukemia)): −55%
- % Cell growth ([1]; KATO III (Stomach)): −91%
- % Cell growth [1, 3]: −62%
- % Cell growth ([1]; LNCaP (Prostrate Cancer)): −86%
- % Cell growth ([1]; MCF7 (Breast Cancer)): −71%
- % Cell growth ([1]; MCF-7 AdrR (Breast Cancer)): −90%
- % Cell growth ([1]; MDA-MB-231 (Breast Cancer)): −92%
- % Cell growth ([1]; MDA-MB-468 (Breast Cancer)): −92%
- % Cell growth ([1]; MES-SA (Uterus)): −88%
- % Cell growth ([1]; MIA PaCa-2 (Pancreas)): 3%
- % Cell growth ([1]; MOLT-4 (Leukemia)): −94%
- % Cell growth ([1]; MV-411 (Leukemia)): −96%
- % Cell growth [1, 4]: −37%
- % Cell growth ([1]; OVCAR-3 (Ovarian Cancer)): −93%
- % Cell growth ([1]; PANC-1 (Pancreas)): 36%
- % Cell growth ([1]; PC-3 (Prostrate Cancer)): 70%
- % Cell growth [1, 5]: −62%
- % Cell growth ([1]; Ramos (Lymphoma)): −92%
- % Cell growth ([1]; SK-MEL-5 (Melanoma)): −96%
- % Cell growth ([1]; SK-N-MC (Brain)): −87%
- % Cell growth ([1]; SK-OV-3 (Ovarian Cancer)): −35%
- % Cell growth ([1]; SW-620 (Colon Cancer)): −89%
- % Cell growth ([1]; T-47D (Breast Cancer)): 20%
- % Cell growth ([1]; U937 (Lymphoma)): −86%
- % Cell growth ([1]; U-87 MG (Brain)): 7%

Compound: CC(C)=CCC[C@@H]1C(O)Oc2c(C)cc(O)c3c2[C@H]1CC[C@H]3C (some centres unmarked) [Compound 2, 5,18-epoxyserrulat-14-en-8,18-diol]
- inhibition at 10 µM (JARID1C (h)): -13%
- effect on cell viability ([1]; remaining cell lines (other than HL-60)): no significant effect
- % Cell growth ([1]; 4T1 (Breast Cancer)): 60%
- % Cell growth ([1]; A375 (Skin)): 74%
- % Cell growth ([1]; A-431 (Skin)): 100%
- % Cell growth ([1]; A-498 (Kidney Cancer)): 91%
- % Cell growth ([1]; ACHN (Kidney Cancer)): 101%
- % Cell growth ([1]; B16-F0 (Melanoma)): 123%
- % Cell growth ([1]; BT474 (Breast Cancer)): 118%
- % Cell growth ([1]; CT26.WT (Colon Cancer)): 120%
- % Cell growth ([1]; DLD-1 (Colon Cancer)): 95%
- % Cell growth ([1]; H33HJ-JA1 (Lymphoma)): 57%
- % Cell growth ([1]; HC-4 (Liver Cancer)): 104%
- % Cell growth ([1]; HCT-15 (Colon Cancer)): 94%
- % Cell growth ([1]; HCT-116 (Colon Cancer)): 81%
- % Cell growth ([1]; HT-29 (Colon Cancer)): 107%
- % Cell growth ([1]; Hep3B (Liver Cancer)): 87%
- % Cell growth ([1]; HepG2 (Liver Cancer)): 95%
- % Cell growth ([1]; K-562 (Leukemia)): 69%
- % Cell growth ([1]; KATO III (Stomach)): 84%
- % Cell growth [1, 3]: 105%
- % Cell growth ([1]; LNCaP (Prostrate Cancer)): 73%
- % Cell growth ([1]; MCF7 (Breast Cancer)): 114%
- % Cell growth ([1]; MCF-7 AdrR (Breast Cancer)): 92%
- % Cell growth ([1]; MDA-MB-231 (Breast Cancer)): 97%
- % Cell growth ([1]; MDA-MB-468 (Breast Cancer)): 37%
- % Cell growth ([1]; MES-SA (Uterus)): 75%
- % Cell growth ([1]; MIA PaCa-2 (Pancreas)): 92%
- % Cell growth ([1]; MOLT-4 (Leukemia)): 38%
- % Cell growth ([1]; MV-411 (Leukemia)): 37%
- % Cell growth [1, 4]: 88%
- % Cell growth ([1]; OVCAR-3 (Ovarian Cancer)): 67%
- % Cell growth ([1]; PANC-1 (Pancreas)): 87%
- % Cell growth ([1]; PC-3 (Prostrate Cancer)): 99%
- % Cell growth [1, 5]: 92%
- % Cell growth ([1]; Ramos (Lymphoma)): 33%
- % Cell growth ([1]; SK-MEL-5 (Melanoma)): 95%
- % Cell growth ([1]; SK-N-MC (Brain)): 73%
- % Cell growth ([1]; SK-OV-3 (Ovarian Cancer)): 82%
- % Cell growth ([1]; SW-620 (Colon Cancer)): 97%
- % Cell growth ([1]; T-47D (Breast Cancer)): 104%
- % Cell growth ([1]; U937 (Lymphoma)): 102%
- % Cell growth ([1]; U-87 MG (Brain)): 101%

Compound: CC(C)=CCC[C@@H]1COc2c(C)cc(O)c3c2[C@H]1CC[C@H]3C [Compound 3, 5,18-epoxy-8-hydroxyserrulat-14-ene]
- inhibition at 10 µM (JARID1C (h)): 25%
- effect on cell viability ([1]; all 44 cell lines): no significant effect
- % Cell growth ([1]; 4T1 (Breast Cancer)): 99%
- % Cell growth ([1]; A375 (Skin)): 100%
- % Cell growth ([1]; A-431 (Skin)): 102%
- % Cell growth ([1]; A-498 (Kidney Cancer)): 92%
- % Cell growth ([1]; ACHN (Kidney Cancer)): 105%
- % Cell growth ([1]; B16-F0 (Melanoma)): 116%
- % Cell growth ([1]; BT474 (Breast Cancer)): 108%
- % Cell growth ([1]; CT26.WT (Colon Cancer)): 103%
- % Cell growth ([1]; DLD-1 (Colon Cancer)): 101%
- % Cell growth ([1]; H33HJ-JA1 (Lymphoma)): 90%
- % Cell growth ([1]; HC-4 (Liver Cancer)): 105%
- % Cell growth ([1]; HCT-15 (Colon Cancer)): 116%
- % Cell growth ([1]; HCT-116 (Colon Cancer)): 99%
- % Cell growth ([1]; HT-29 (Colon Cancer)): 101%
- % Cell growth ([1]; Hep3B (Liver Cancer)): 84%
- % Cell growth ([1]; HepG2 (Liver Cancer)): 103%
- % Cell growth ([1]; K-562 (Leukemia)): 93%
- % Cell growth ([1]; KATO III (Stomach)): 105%
- % Cell growth [1, 3]: 111%
- % Cell growth ([1]; LNCaP (Prostrate Cancer)): 84%
- % Cell growth ([1]; MCF7 (Breast Cancer)): 112%
- % Cell growth ([1]; MCF-7 AdrR (Breast Cancer)): 101%
- % Cell growth ([1]; MDA-MB-231 (Breast Cancer)): 100%
- % Cell growth ([1]; MDA-MB-468 (Breast Cancer)): 85%
- % Cell growth ([1]; MES-SA (Uterus)): 94%
- % Cell growth ([1]; MIA PaCa-2 (Pancreas)): 106%
- % Cell growth ([1]; MOLT-4 (Leukemia)): 77%
- % Cell growth ([1]; MV-411 (Leukemia)): 76%
- % Cell growth [1, 4]: 100%
- % Cell growth ([1]; OVCAR-3 (Ovarian Cancer)): 86%
- % Cell growth ([1]; PANC-1 (Pancreas)): 116%
- % Cell growth ([1]; PC-3 (Prostrate Cancer)): 64%
- % Cell growth [1, 5]: 96%
- % Cell growth ([1]; Ramos (Lymphoma)): 129%
- % Cell growth ([1]; SK-MEL-5 (Melanoma)): 118%
- % Cell growth ([1]; SK-N-MC (Brain)): 82%
- % Cell growth ([1]; SK-OV-3 (Ovarian Cancer)): 98%
- % Cell growth ([1]; SW-620 (Colon Cancer)): 107%
- % Cell growth ([1]; T-47D (Breast Cancer)): 119%
- % Cell growth ([1]; U937 (Lymphoma)): 105%
- % Cell growth ([1]; U-87 MG (Brain)): 111%

Compound: CC(C)=CCC[C@H](C)[C@@H]1CC[C@@H](C)c2c1cc(C)c(O)c2O [Compound 4, 7,8-dihydroxyserrulat-14-ene]
- reduction in cell viability ([1]; Ramos, H33HJ-JA1, HL-60 (TB), MOLT-4, MV-411, SK-N-MC): −82 to −94%
- % Cell growth ([1]; 4T1 (Breast Cancer)): 26%
- % Cell growth ([1]; A375 (Skin)): 65%
- % Cell growth [1, 2]: 93%
- % Cell growth ([1]; A-431 (Skin)): 107%
- % Cell growth ([1]; A-498 (Kidney Cancer)): 89%
- % Cell growth ([1]; ACHN (Kidney Cancer)): 105%
- % Cell growth ([1]; B16-F0 (Melanoma)): 56%
- % Cell growth ([1]; BT474 (Breast Cancer)): 64%
- % Cell growth ([1]; CT26.WT (Colon Cancer)): 33%
- % Cell growth ([1]; DLD-1 (Colon Cancer)): 68%
- % Cell growth ([1]; H33HJ-JA1 (Lymphoma)): −87%
- % Cell growth ([1]; HC-4 (Liver Cancer)): 91%
- % Cell growth ([1]; HCT-15 (Colon Cancer)): 69%
- % Cell growth ([1]; HCT-116 (Colon Cancer)): 64%
- % Cell growth ([1]; HT-29 (Colon Cancer)): 91%
- % Cell growth ([1]; Hep3B (Liver Cancer)): 93%
- % Cell growth ([1]; HepG2 (Liver Cancer)): 90%
- % Cell growth ([1]; K-562 (Leukemia)): 60%
- % Cell growth ([1]; KATO III (Stomach)): 83%
- % Cell growth [1, 3]: 98%
- % Cell growth ([1]; LNCaP (Prostrate Cancer)): 56%
- % Cell growth ([1]; MCF7 (Breast Cancer)): 77%
- % Cell growth ([1]; MCF-7 AdrR (Breast Cancer)): 77%
- % Cell growth ([1]; MDA-MB-231 (Breast Cancer)): 84%
- % Cell growth ([1]; MDA-MB-468 (Breast Cancer)): 52%
- % Cell growth ([1]; MES-SA (Uterus)): 68%
- % Cell growth ([1]; MIA PaCa-2 (Pancreas)): 92%
- % Cell growth ([1]; MOLT-4 (Leukemia)): −93%
- % Cell growth ([1]; MV-411 (Leukemia)): −94%
- % Cell growth [1, 4]: 93%
- % Cell growth ([1]; OVCAR-3 (Ovarian Cancer)): 60%
- % Cell growth ([1]; PANC-1 (Pancreas)): 82%
- % Cell growth [1, 5]: 4%
- % Cell growth ([1]; Ramos (Lymphoma)): −82%
- % Cell growth ([1]; SK-MEL-5 (Melanoma)): 88%
- % Cell growth ([1]; SK-N-MC (Brain)): −92%
- % Cell growth ([1]; SK-OV-3 (Ovarian Cancer)): 74%
- % Cell growth ([1]; SW-620 (Colon Cancer)): 74%
- % Cell growth ([1]; T-47D (Breast Cancer)): 47%
- % Cell growth ([1]; U937 (Lymphoma)): 20%
- % Cell growth ([1]; U-87 MG (Brain)): 81%
